Results published in ChEMBL document CHEMBL6096714, “Advancements in Neurotechnology: Pioneering Brain Monitoring and Stimulation for Enhanced Treatment and Understanding” (ACS Med Chem Lett, 2025).
Activity calls are given as the source filed them. No cut-off for these calls is given here.

What was measured:
Type in all cases: functional, cell-based
Cortical neurone [1] = assay: Neuroplasticity effect in female Wistar rat Cortical neuron assessed as increase in neurite number at 10 uM incubated for […]
Cortical neurone [2] = assay: Neuroplasticity effect in female Wistar rat Cortical neuron assessed as increase in neurite length at 10 uM incubated for […]
Cortical neurone [3] = assay: Neuroplasticity effect in female Wistar rat Cortical neuron assessed as increase in neurite branching at 10 uM incubated for […]

Structure (SMILES) | Activity (Cortical neurone [1]) | Activity (Cortical neurone [2]) | Activity (Cortical neurone [3])
Cn1c2c(c3ccc(OCc4ccccc4)cc31)CCNCC2 | inactive | inactive | inactive
Fc1ccc(Oc2ccc3c4c([nH]c3c2)CCNCC4)cc1 | Active | Active | Active
CN1CCc2[nH]c3cc(OCc4ccc(F)cc4)ccc3c2CC1 | Active | Active | Active
c1ccc(COc2ccc3c4c([nH]c3c2)CCNCC4)cc1 | Active | Active | Active
CN1CCc2[nH]c3cc(Oc4ccccc4)ccc3c2CC1 | Active | Active | Active
CN1CCc2[nH]c3cc(OCc4ccccc4)ccc3c2CC1 | Active | Active | inactive
